In patent publication US10611730B2, “Benzimidazolone and benzothiazolone compounds and their use as AMPA receptor modulators” (Janssen Pharmaceutica NV, priority 2015, dated 2020):

target: TARP γ8 dependent AMPA receptor (GluA1o-g8 fusion channel) (Homo sapiens (Human), UniProt P42261+Q8WXS5); test: Calcium flux assay (FLIPR), HEK293 cells expressing GRIA1o-CACNG8 fusion; assay type: cell-based; conditions: inhibition of calcium flux after 15 μM glutamate, read-out: GluR1-γ8 pIC50 (converted)
How it was run: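 Stable HEK293 clone expressing GluA1o-γ8 fusion (1:1 stoichiometry), loaded with Calcium-5/6 dye plus test compound; glutamate-evoked fluorescence normalized to control wells. Concentration-response fitted to four-parameter logistic, midpoint taken as inhibitory potency.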

TARP γ8 dependent AMPA receptor (GluA1o-g8 fusion channel), sequence (P42261 other isoform, or with tags, fused parts or gaps): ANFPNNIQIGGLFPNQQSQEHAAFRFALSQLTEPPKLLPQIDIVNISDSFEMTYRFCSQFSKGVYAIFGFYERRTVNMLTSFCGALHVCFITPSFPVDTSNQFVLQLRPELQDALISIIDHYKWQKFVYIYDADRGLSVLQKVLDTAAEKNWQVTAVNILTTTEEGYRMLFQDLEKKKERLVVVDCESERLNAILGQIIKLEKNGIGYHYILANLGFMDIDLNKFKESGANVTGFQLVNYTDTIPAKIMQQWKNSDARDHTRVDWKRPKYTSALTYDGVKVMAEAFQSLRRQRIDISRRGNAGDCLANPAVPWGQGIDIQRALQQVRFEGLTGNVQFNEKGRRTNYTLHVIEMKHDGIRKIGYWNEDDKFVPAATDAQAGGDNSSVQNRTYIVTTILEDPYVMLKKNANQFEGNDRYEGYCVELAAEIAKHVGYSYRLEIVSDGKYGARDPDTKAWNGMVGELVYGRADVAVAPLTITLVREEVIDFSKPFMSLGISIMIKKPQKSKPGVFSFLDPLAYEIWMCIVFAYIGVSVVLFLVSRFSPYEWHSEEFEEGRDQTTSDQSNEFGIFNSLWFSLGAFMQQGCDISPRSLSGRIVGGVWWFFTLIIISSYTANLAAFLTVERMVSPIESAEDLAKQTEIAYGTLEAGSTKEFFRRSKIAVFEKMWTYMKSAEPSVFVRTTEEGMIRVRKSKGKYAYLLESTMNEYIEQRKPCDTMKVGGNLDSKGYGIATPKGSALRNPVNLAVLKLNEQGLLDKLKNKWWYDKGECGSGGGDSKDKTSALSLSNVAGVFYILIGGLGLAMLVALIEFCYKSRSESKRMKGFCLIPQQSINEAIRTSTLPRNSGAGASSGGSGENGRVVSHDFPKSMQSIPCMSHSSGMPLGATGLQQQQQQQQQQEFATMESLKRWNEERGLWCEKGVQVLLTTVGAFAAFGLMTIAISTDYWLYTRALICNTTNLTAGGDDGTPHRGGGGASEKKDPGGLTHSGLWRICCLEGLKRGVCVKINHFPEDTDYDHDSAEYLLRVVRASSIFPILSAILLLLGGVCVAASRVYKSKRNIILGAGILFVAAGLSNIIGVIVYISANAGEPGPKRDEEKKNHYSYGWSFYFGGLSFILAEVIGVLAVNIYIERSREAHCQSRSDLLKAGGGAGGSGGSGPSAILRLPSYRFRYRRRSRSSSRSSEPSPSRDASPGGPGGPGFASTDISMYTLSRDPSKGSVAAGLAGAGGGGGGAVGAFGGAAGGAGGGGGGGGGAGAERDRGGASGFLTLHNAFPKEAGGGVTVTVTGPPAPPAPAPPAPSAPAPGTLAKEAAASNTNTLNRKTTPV

SMILES | IC50 [nM]
C=Cc1cccc(Cl)c1-c1ccc2[nH]c(=O)[nH]c2c1 [Example 161, 5-(2-Chloro-6-vinyl-phenyl)-1,3-dihydrobenzimidazol-2-one] | 31.6
O=c1[nH]c2ccc(-c3c(Cl)cccc3-c3ccccc3)cc2[nH]1 [Example 162, 5-(2-Chloro-6-phenyl-phenyl)-1,3-dihydrobenzimidazol-2-one] | 20
O=c1[nH]c2ccc(-c3c(Cl)cccc3-c3ccc(F)cc3)cc2[nH]1 [Example 163, 5-[2-Chloro-6-(4-fluorophenyl)phenyl]-1,3-dihydrobenzimidazol-2-one] | 20
N#Cc1ccc(-c2cccc(Cl)c2-c2ccc3[nH]c(=O)[nH]c3c2)cc1 [Example 164, 4-[3-Chloro-2-(2-oxo-1,3-dihydrobenzimidazol-5-yl)phenyl]benzonitrile] | 39.8
O=c1[nH]c2ccc(-c3c(Cl)cccc3-c3cccnc3)cc2[nH]1 [Example 165, 5-[2-Chloro-6-(3-pyridyl)phenyl]-1,3-dihydrobenzimidazol-2-one] | 126
O=c1[nH]c2ccc(-c3c(Cl)cccc3-c3cncc(F)c3)cc2[nH]1 [Example 166, 5-[2-Chloro-6-(5-fluoro-3-pyridyl)phenyl]-1,3-dihydrobenzimidazol-2-one] | 63.1
O=c1[nH]c2ccc(-c3c(Cl)cccc3-c3ccc(F)nc3)cc2[nH]1 [Example 167, 5-[2-Chloro-6-(6-fluoro-3-pyridyl)phenyl]-1,3-dihydrobenzimidazol-2-one] | 316
COc1cncc(-c2cccc(Cl)c2-c2ccc3[nH]c(=O)[nH]c3c2)c1 [Example 168, 5-[2-Chloro-6-(5-methoxy-3-pyridyl)phenyl]-1,3-dihydrobenzimidazol-2-one] | 398
O=c1[nH]c2ccc(-c3c(Cl)cccc3-c3cncc(C(F)(F)F)c3)cc2[nH]1 [Example 169, 5-[2-Chloro-6-[5-(trifluoromethyl)-3-pyridyl]phenyl]-1,3-dihydrobenzimidazol-2-one] | 251
O=c1[nH]c2ccc(-c3c(Cl)cccc3-c3ccncc3)cc2[nH]1 [Example 170, 5-[2-Chloro-6-(4-pyridyl)phenyl]-1,3-dihydrobenzimidazol-2-one] | 316
COc1cnccc1-c1cccc(Cl)c1-c1ccc2[nH]c(=O)[nH]c2c1 [Example 171, 5-[2-Chloro-6-(3-methoxy-4-pyridyl)phenyl]-1,3-dihydrobenzimidazol-2-one] | 1000
COCCn1cc(-c2cccc(Cl)c2-c2ccc3[nH]c(=O)[nH]c3c2)cn1 [Example 172, 5-[2-Chloro-6-[1-(2-methoxyethyl)pyrazol-4-yl]phenyl]-1,3-dihydrobenzimidazol-2-one] | 2000
Cn1cc(-c2cccc(Cl)c2-c2ccc3[nH]c(=O)[nH]c3c2)cn1 [Example 173, 5-[2-Chloro-6-(1-methylpyrazol-4-yl)phenyl]-1,3-dihydrobenzimidazol-2-one] | 398
Cc1noc(C)c1-c1cccc(Cl)c1-c1ccc2[nH]c(=O)[nH]c2c1 [Example 174, 5-[2-Chloro-6-(3,5-dimethylisoxazol-4-yl)phenyl]-1,3-dihydrobenzimidazol-2-one] | 794
CC(C)n1nccc1-c1cccc(Cl)c1-c1ccc2[nH]c(=O)[nH]c2c1 [Example 175, 5-[2-Chloro-6-(2-isopropylpyrazol-3-yl)phenyl]-1,3-dihydrobenzimidazol-2-one] | 1260
O=c1[nH]c2ccc(-c3c(Cl)cccc3-c3cn[nH]c3)cc2[nH]1 [Example 176, 5-[2-Chloro-6-(1H-pyrazol-4-yl)phenyl]-1,3-dihydrobenzimidazol-2-one] | 2000
Cc1c(-c2cccc(Cl)c2-c2ccc3[nH]c(=O)[nH]c3c2)cnn1C [Example 177, 5-[2-Chloro-6-(1,5-dimethylpyrazol-4-yl)phenyl]-1,3-dihydrobenzimidazol-2-one] | 794
O=c1[nH]c2ccc(-c3c(Cl)cccc3-c3cncnc3)cc2[nH]1 [Example 178, 5-(2-Chloro-6-pyrimidin-5-yl-phenyl)-1,3-dihydrobenzimidazol-2-one] | 3980
Cc1cccc(-c2ccccc2)c1-c1ccc2[nH]c(=O)[nH]c2c1 [Example 179, 5-(2-Methyl-6-phenyl-phenyl)-1,3-dihydrobenzimidazol-2-one] | 63.1
Cc1cccc(-c2ccccc2F)c1-c1ccc2[nH]c(=O)[nH]c2c1 [Example 180, 5-[2-(2-Fluorophenyl)-6-methyl-phenyl]-1,3-dihydrobenzimidazol-2-one] | 316
Cc1cccc(-c2ccc(F)cc2)c1-c1ccc2[nH]c(=O)[nH]c2c1 [Example 181, 5-[2-(4-Fluorophenyl)-6-methyl-phenyl]-1,3-dihydrobenzimidazol-2-one] | 100
COc1cccc(-c2cccc3cccnc23)c1-c1ccc2[nH]c(=O)[nH]c2c1 [Example 182, 5-[2-Methoxy-6-(8-quinolyl)phenyl]-1,3-dihydrobenzimidazol-2-one] | 1580

SMILES | IC50 [nM]
Cn1ccc(-c2cccc(-c3ccc4[nH]c(=O)[nH]c4c3)c2Cl)n1 [Example 183, 5-[2-Chloro-3-(1-methylpyrazol-3-yl)phenyl]-1,3-dihydrobenzimidazol-2-one] | 1580
O=c1[nH]c2ccc(-c3cccc(-c4ccncc4)c3Cl)cc2[nH]1 [Example 184, 5-[2-Chloro-3-(4-pyridyl)phenyl]-1,3-dihydrobenzimidazol-2-one] | 126
Cn1cc(-c2cccc(-c3ccc4[nH]c(=O)[nH]c4c3)c2Cl)cn1 [Example 185, 5-[2-Chloro-3-(1-methylpyrazol-4-yl)phenyl]-1,3-dihydrobenzimidazol-2-one] | 50.1
CC(C)(C)OC(=O)N1CCC=C(c2cccc(-c3ccc4[nH]c(=O)[nH]c4c3)c2Cl)C1 [Example 186, tert-Butyl 5-[2-chloro-3-(2-oxo-1,3-dihydrobenzimidazol-5-yl)phenyl]-3,6-dihydro-2H-pyridine-1-carboxylate] | 6.31
O=c1[nH]c2ccc(-c3cccc(-n4ccnc4)c3Cl)cc2[nH]1 [Example 187, 5-(2-Chloro-3-imidazol-1-yl-phenyl)-1,3-dihydrobenzimidazol-2-one] | 3160
O=c1[nH]c2ccc(-c3cccc(N4CCCCC4)c3Cl)cc2[nH]1 [Example 188, 5-[2-Chloro-3-(1-piperidyl)phenyl]-1,3-dihydrobenzimidazol-2-one] | 12.6
CN(C)c1cccc(-c2ccc3[nH]c(=O)[nH]c3c2)c1Cl [Example 189, 5-[2-Chloro-3-(dimethylamino)phenyl]-1,3-dihydrobenzimidazol-2-one] | 3980
O=c1[nH]c2ccc(-c3cccc(-c4nnco4)c3Cl)cc2[nH]1 [Example 190, 5-[2-Chloro-3-(1,3,4-oxadiazol-2-yl)phenyl]-1,3-dihydrobenzimidazol-2-one] | 2000
Cc1nnc(-c2cccc(-c3ccc4[nH]c(=O)[nH]c4c3)c2Cl)o1 [Example 191, 5-[2-Chloro-3-(5-methyl-1,3,4-oxadiazol-2-yl)phenyl]-1,3-dihydrobenzimidazol-2-one] | 2000
O=c1[nH]c2ccc(-c3c(Cl)ccc(-c4nnco4)c3Cl)cc2[nH]1 [Example 192, 5-[2,6-Dichloro-3-(1,3,4-oxadiazol-2-yl)phenyl]-1,3-dihydrobenzimidazol-2-one] | 631
O=c1[nH]c2ccc(-c3cccc(-c4nnco4)c3Br)cc2[nH]1 [Example 193, 5-[2-Bromo-3-(1,3,4-oxadiazol-2-yl)phenyl]-1,3-dihydrobenzimidazol-2-one] | 251
Cc1c(-c2ccc3[nH]c(=O)[nH]c3c2)cccc1-c1nnco1 [Example 194, 5-[2-Methyl-3-(1,3,4-oxadiazol-2-yl)phenyl]-1,3-dihydrobenzimidazol-2-one] | 501
Cc1nnc(-c2cccc(-c3ccc4[nH]c(=O)[nH]c4c3)c2C)o1 [Example 195, 5-[2-Methyl-3-(5-methyl-1,3,4-oxadiazol-2-yl)phenyl]-1,3-dihydrobenzimidazol-2-one] | 2510
O=c1[nH]c2ccc(-c3cccc(-c4nnc(C5CC5)o4)c3Cl)cc2[nH]1 [Example 196, 5-[2-Chloro-3-(5-cyclopropyl-1,3,4-oxadiazol-2-yl)phenyl]-1,3-dihydrobenzimidazol-2-one] | 316
Cc1c(-c2ccc3[nH]c(=O)[nH]c3c2)cccc1-c1nnc(C2CC2)o1 [Example 197, 5-[3-(5-Cyclopropyl-1,3,4-oxadiazol-2-yl)-2-methyl-phenyl]-1,3-dihydrobenzimidazol-2-one] | 398
Cc1c(-c2ccc3[nH]c(=O)[nH]c3c2)cccc1-c1nnc(C(F)(F)F)o1 [Example 198, 5-[2-Methyl-3-[5-(trifluoromethyl)-1,3,4-oxadiazol-2-yl]phenyl]-1,3-dihydrobenzimidazol-2-one] | 20
Cc1c(-c2ccc3[nH]c(=O)[nH]c3c2)cccc1-c1ncno1 [Example 199, 5-[2-Methyl-3-(1,2,4-oxadiazol-5-yl)phenyl]-1,3-dihydrobenzimidazol-2-one] | 63.1
Cc1c(-c2ccc3[nH]c(=O)sc3c2)cccc1-c1ncno1 [Example 200, 6-[2-Methyl-3-(1,2,4-oxadiazol-5-yl)phenyl]-3H-1,3-benzothiazol-2-one] | 2510
Cc1c(-c2ccc3[nH]c(=O)[nH]c3c2)cccc1-c1nc(C2CC2)no1 [Example 201, 5-(3-(3-cyclopropyl-1,2,4-oxadiazol-5-yl)-2-methylphenyl)-1H-benzo[d]imidazol-2(3H)-one] | 10
Cc1c(-c2ccc3[nH]c(=O)sc3c2)cccc1-c1nc(C2CC2)no1 [Example 202, 6-[3-(3-Cyclopropyl-1,2,4-oxadiazol-5-yl)-2-methyl-phenyl]-3H-1,3-benzothiazol-2-one] | 3980
Cc1noc(-c2cccc(-c3ccc4[nH]c(=O)[nH]c4c3)c2C)n1 [Example 203, 5-[2-Methyl-3-(3-methyl-1,2,4-oxadiazol-5-yl)phenyl]-1,3-dihydrobenzimidazol-2-one] | 39.8
